Literature values as cited in patent US20170151272A1, “A NOVEL PHARMACEUTICAL COMPOSITION OF […] RIBAVIRIN” (SANOVEL ILAC SANAYI VE TICARET ANONIM SIRKETI, priority 2014, published 2017).

Tested on: chronic hepatitis C (CHC) infections
Conditions: ribavirin alone

For “1-β-Dribofuranosyl-1H-1,2,4-triazole-3-carboxamide [Ribavirin]”, the sustained virologic response is given as “did not produce any sustained virologic response”, the “HCV RNA levels” value (during or after therapy) is given as “did not reduce” and the “alanine aminotransferase (ALT) levels” value (during the course of treatment, some patients with CHC) is given as “normalize W201 alanine aminotransferase (ALT) levels transiently”.
